PMC10126514, “The interaction of peptide inhibitors and Aβ protein: Binding mode analysis, inhibition of the formation of Aβ aggregates, and then exert neuroprotective effects” (Frontiers in Aging Neuroscience, 2023)
“Also recorded” adds a separate entry of the source. Residues, ends and D or L forms follow the SMILES beside them.

Columns and labels:
[1] = system: PC12 cells; settings: cited from earlier work
Source text: Abnormally precipitated Aβ in amyloid plaques becomes one of the hallmark proteins of brain nerve damage in AD patients, and promotes the deterioration of AD. The accumulation of Aβ protein is caused by the interaction between the hydrophobic center and the C-terminal molecule ([Kapadia et al., 2021]). At present, the development of anti-Aβ aggregation compounds is a promising approach in the treatment of AD, and many clinical trials are ongoing. […] However, these peptides have high specificity and low toxicity, which will make them candidate drugs for peptide inhibitors against Aβ aggregation ([Fosgerau and Hoffmann, 2015]). Peptides designed by computer simulation and applied to Alzheimer’s disease are becoming more and more popular and welcomed by researchers. At present, the peptide inhibitors of Aβ aggregation include LVFF, KLVFF, KLVFF modified peptide (QKL ...

[2] = system: Aβ aggregation; settings: cited from earlier work; for Aβ aggregation and toxicity: ref Cheng et al., 2012
Source text: (§1) In recent years, through the emergence of peptides that inhibit the aggregation of Aβ, extensive research has been conducted on peptides for the treatment of Alzheimer’s disease. However, these peptides have high specificity and low toxicity, which will make them candidate drugs for peptide inhibitors against Aβ aggregation ([Fosgerau and Hoffmann, 2015]). Peptides designed by computer simulation and applied to Alzheimer’s disease are becoming more and more popular and welcomed by researchers. At present, the peptide inhibitors of Aβ aggregation include LVFF, KLVFF, KLVFF modified peptide (QKL ...

[3] = system: apoptosis caused by Aβ; settings: ref Hadipour et al., 2020; cited from earlier work
Source text: Abnormally precipitated Aβ in amyloid plaques becomes one of the hallmark proteins of brain nerve damage in AD patients, and promotes the deterioration of AD. The accumulation of Aβ protein is caused by the interaction between the hydrophobic center and the C-terminal molecule ([Kapadia et al., 2021]). At present, the development of anti-Aβ aggregation compounds is a promising approach in the treatment of AD, and many clinical trials are ongoing.

[4] = target: T1, Aβ1–42 (Homo sapiens, UniProt P05067); assay: SPR affinity of peptide and Aβ1–42; format: binding; settings: for Binding phase of SPR kinetic curve / Dissociation phase of SPR kinetic curve / Binding ability ranking by KD: qualitative, SPR
T1 construct: purchased GL Biochem Ltd. (Shanghai)
Protocol: Surface Plasmon Resonance (SPR) is a sensitive surface analysis technique that detects changes in dielectric constant caused by molecules adsorbed on heavy metal films. In this study, the 1-(3-Dimethylaminopropyl)-3-ethylcarbodiimide hydrochloride (EDC) and N-Hydroxy succinimide (NHS) in the coupling kit were, respectively, dissolved in 1 mL of activation buffer, divided into 10 parts, 100 μL/part, and stored at −20°C for later use. Before the experiment, first install the CM5 chip in the machine and wash it with HBS-EP buffer 3 times. […] After the experiment is over, use the Evaluation software to analyze the results, and use Flow Cell2 to subtract the background signal of channel 1 as the experimental result. The 1:1 binding method is used for fitting calculation and analysis of affinity parameters: binding rate constant ka (1/Ms), dissociation rate constant kd (1/s) and equilibrium dissociation constant KD (M), KD = kd/ ka, the smaller the KD value, the stronger the affinity.

[5] = system: PC12 cells; format: cell-based, Rat
Protocol: Pipette the cultured cells in a cell culture flask repeatedly to make them evenly distributed. Use a pipete to pipete 10 μL of cell suspension and transfer to a cell counting plate for counting. Count under a microscope to calculate the number of living cells distributed in a large square composed of 16 squares on the cytometer. Cell density (pcs / mL) = (sum of cell count/4) × 10^4 Calculate the cell concentration, repeat counting 2–3 times for each sample (the value should not be too different each time, otherwise the operation should be repeated). If there are less than 5 cells in each large square, you need to re-centrifuge to adjust the cell concentration.
Use CCK-8 kit to detect cell viability, reflecting the cytotoxicity of peptide inhibitors themselves. The counted PC12 cells were plated at 100 μL/well (8 × 10^4 cells/well). After put the 96-well plate at 37°C for 12 h, discard the medium, add 100 μL of medium containing different concentrations of peptide inhibitors to each well, and continue to culture 24 h. […] The wells with DMEM medium solution containing no peptide inhibitors but containing cells were used as the control group.
Cell Viability(%)=ODadministration group−[…]ODcontrol group−ODblank group×100%

[6] = system: Aβ1–42 aggregation; assay: ThT fluorescence, inhibition of Aβ1–42 aggregation; format: biochemical, Human; settings: for ThT fluorescence intensity vs Aβ group: PBS, ex 440/em 480 nm
Protocol: ThT is a chemical fluorescent dye. […] Based on this fluorescence phenomenon, ThT is used as a kind of fluorescent indicator to detect the degree of aggregation of Aβ.
Take about 10 μL of the sample, dilute it 20 times with ThT solution, and read the fluorescence intensity value with a microplate reader, 440 nm is the excitation wavelength, and 480 nm is the emission wavelength, and the bandwidth is 5 nm. […] The sample was repeated five times and the average value was taken.

[7] = system: Aβ1–42 oligomerization; settings: ref Takahashi and Mihara, 2008, cited from earlier work
Source text: as §1

[8] = system: PC12 cells; settings: CCK-8, co-incubated with Aβ1–42 72 h
Protocol: Rat adrenal pheochromocytoma (PC12) cells were donated by Zhengzhou University School of Basic Medicine (#CRL-1721; RRID: CVCL-0481) in DMEM containing 10% fetal bovine serum, 1% penicillin and 1% streptomycin, culture in a cell incubator with 5% CO2 and 37°C, and passage once every 3 days.
Add 10 μL of CCK-8 solution to each well and continue to incubate for 2 h. Add 10 μL of CCK-8 solution to each well and continue to incubate for 2 h. The wells with normal DMEM medium and cell solution were used as the control group. The wells with 100 μL DMEM medium and 10 μL CCK-8 solution but no cells were used as the blank control, and the absorbance was measured at 450 nm.

[9] = peptide 50 μM, Aβ1–42 25 μM, 37°C, 24 h, ThT
[10] = peptide 50 μM, Aβ1–42 25 μM, 37°C, 24 h, n = 5 mean

T1 sequence (P05067 672-713 limits assumed): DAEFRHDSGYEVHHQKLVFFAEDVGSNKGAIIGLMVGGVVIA

For `CC(C)=CCC[C@@H](C)[C@H]1CC[C@@]2(C)C3=C(CC[C@]12C)[C@@]1(C)CC[C@H](O)C(C)(C)[C@@H]1CC3` [lanosterol], the “Aβ-induced cytotoxicity in PC12 cells” value ([1]; ref Zhou et al., 2019) is given as “reduce the Aβ-induced cytotoxicity in PC12 cells”.
In the case of “KLVFFAE [amyloid β-sheet mimics ; KLVFFAE (Aβ16–22)]”, the “Aβ aggregation and toxicity” value [2] is given as “antagonizing Aβ protein aggregation and reducing Aβ toxicity”.
In the case of `CC(C)=CCC/C(C)=C/CC/C(C)=C/CC/C(C)=C/CC1=C(C)C(=O)c2ccccc2C1=O` [vitamin K2], the “Apoptosis caused by Aβ accumulation” value [3] is listed as “significantly reduced” and the “Ratio of Bax/Bcl-2” value [3] is listed as “decreased”.
For “pituitary adenylate cyclase activating polypeptide [PACAP]”, the “Aβ-induced cell death in PC12 cells” value ([1]; ref Onoue et al., 2002) is given as “attenuates Aβ-induced cell death in PC12 cells by increasing cAMP” and the Caspase-3 ([1]; ref Onoue et al., 2002) is given as “inactivation of apoptotic factor (caspase-3)”.
In the case of `CC(=O)N[C@@H](Cc1ccc(O)cc1)C(=O)N[C@H](C(=O)N[C@@H](CCCNC(=N)N)C(=O)N[C@@H](Cc1c[nH]cn1)C(=O)N[C@@H](CO)C(=O)N[C@H](C(=O)N[C@@H](Cc1ccc(O)cc1)C(=O)N[C@H](C(=O)N[C@@H](CCCNC(=N)N)C(=O)N[C@@H](Cc1c[nH]cn1)C(=O)N[C@@H](CO)C(=O)N[C@H](C(N)=O)C(C)C)C(C)C)C(C)C)C(C)C` [P11] (Ac-YVRHSVYVRHSV-NH2), the Kd [4] is reported as 20.5 µM, the “Binding phase of SPR kinetic curve” value [4] is reported as “the curve rises steadily, and it takes a long time to reach saturation” and the “Dissociation phase of SPR kinetic curve” value [4] is reported as “relatively slow in the dissociation phase”. For the same compound, the “Cell viability at 3.125 μM” value [5] was “cell viability began to decrease significantly at low concentration (3.125 μM) of P11 (p < 0.05)”, the “Inhibitory effect on Aβ aggregation” value [6, 9] was “certain inhibitory ability on Aβ aggregation” and the “ThT fluorescence intensity vs Aβ group” value [6, 10] was “decreased, but the difference was not statistically significant (p > 0.05)”.
For QKLVFF, the “Formation of Aβ fibers” value ([2]; ref Findeis et al., 1999) is given as “inhibiting the formation of Aβ fibers”.
For “H2N-KLVFF (4-I) -CONH2 [iodinated KLVFF]”, the “Anti-aggregation activity vs other halogenated peptides” value ([2]; 10 μM peptide, 10 μM Aβ, 1:1, ref Khalili Samani and Mofid, 2020) is given as “show the best resistance compared to other halogenated peptides”.
With `CC(=O)N[C@@H](Cc1ccc(O)cc1)C(=O)N[C@H](C(=O)N[C@@H](CCCNC(=N)N)C(=O)N[C@@H](Cc1c[nH]cn1)C(=O)N[C@@H](CC(=O)O)C(=O)N[C@@H](CC(C)C)C(=O)N[C@@H](Cc1ccc(O)cc1)C(=O)N[C@H](C(=O)N[C@@H](CCCNC(=N)N)C(=O)N[C@@H](Cc1c[nH]cn1)C(=O)N[C@@H](CC(=O)O)C(=O)N[C@@H](CC(C)C)C(N)=O)C(C)C)C(C)C` [P12] (Ac-YVRHDLYVRHDL-NH2) the Kd [4] was 0.327 µM, the “Binding ability ranking by KD” value [4] was “the strongest” and the “Binding phase of SPR kinetic curve” value [4] was “rises rapidly at the beginning of binding and reaches saturation in a short time”. For the same compound, the “Dissociation phase of SPR kinetic curve” value [4] was “the curve drops rapidly and the dissociation is completed”, the “Cell viability at 6.25 μM” value [5] was “significant effect on the viability of PC12 cells at 6.25 μM (p < 0.05)” and the “Inhibitory effect on Aβ aggregation” value [6, 9] was “no inhibitory effect on Aβ aggregation”. For the same compound, the “ThT fluorescence intensity vs Aβ group” value [6, 10] was “increased, but the difference is not statistically significant (p > 0.05)”.
In the case of `CC(=O)N[C@@H](Cc1ccc(O)cc1)C(=O)N[C@H](C(=O)N[C@@H](CCCNC(=N)N)C(=O)N[C@@H](Cc1c[nH]cn1)C(=O)N[C@@H](Cc1c[nH]cn1)C(=O)N[C@@H](Cc1c[nH]cn1)C(=O)N[C@@H](Cc1ccc(O)cc1)C(=O)N[C@H](C(=O)N[C@@H](CCCNC(=N)N)C(=O)N[C@@H](Cc1c[nH]cn1)C(=O)N[C@@H](Cc1c[nH]cn1)C(=O)N[C@@H](Cc1c[nH]cn1)C(N)=O)C(C)C)C(C)C` [P9] (Ac-YVRHHHYVRHHH-NH2), the Kd [4] is reported as 14 µM, the “Binding ability ranking by KD” value [4] is reported as “the weakest” and the “Binding phase of SPR kinetic curve” value [4] is reported as “the curve rises steadily, and it takes a long time to reach saturation”. The “Dissociation phase of SPR kinetic curve” value [4] was “relatively slow in the dissociation phase”, the “Cell viability at 6.25 μM” value [5] was “began to decrease significantly (p < 0.05)” and the “Cell viability at 25, 50, 100 and 200 μM” value [5] was “decreased significantly, with extremely significant differences (p < 0.01)”. The “Inhibitory effect on Aβ aggregation” value [6, 9] was “no inhibitory effect on Aβ aggregation” and the “ThT fluorescence intensity vs Aβ group” value [6, 10] was “increased, but the difference is not statistically significant (p > 0.05)”.
For “LFFFAED [amyloid β-sheet mimics ; LFFFAED (Aβ17–23)]”, the “Aβ aggregation and toxicity” value [2] is listed as “antagonizing Aβ protein aggregation and reducing Aβ toxicity”.
For Ac-KQKLLLFLEE-NH2, the “Aβ1–42 oligomerization” value ([7]; co-assembles with mature Aβ1–42 fibrils) is listed as “effectively inhibit Aβ1–42 oligomerization” and the Self-assembly [7] is listed as “form amyloid fibrils”.
For `CC(=O)N[C@@H](Cc1ccc(O)cc1)C(=O)N[C@H](C(=O)N[C@@H](CCCNC(=N)N)C(=O)N[C@@H](Cc1c[nH]cn1)C(=O)N[C@@H](CC(C)C)C(=O)N[C@@H](CCCCN)C(=O)N[C@@H](Cc1ccc(O)cc1)C(=O)N[C@H](C(=O)N[C@@H](CCCNC(=N)N)C(=O)N[C@@H](Cc1c[nH]cn1)C(=O)N[C@@H](CC(C)C)C(=O)N[C@@H](CCCCN)C(N)=O)C(C)C)C(C)C` [P21] (Ac-YVRHLKYVRHLK-NH2), the “Cell viability at ratios above 1:1 (1:2, 1:4)” value ([8]; after ratio 1:1, increasing P21 (1:2, 1:4)) was “cell viability continued to increase”, the “Cell viability at ratio 1:4” value ([8]; ratio 1:4) was “reaching the maximum at 1:4, which was close to the normal level” and the Kd [4] was 53.8 µM. The “Binding phase of SPR kinetic curve” value [4] was “rises rapidly at the beginning, but slowly reaches saturation in the following time, and the binding rate is faster”, the “Dissociation phase of SPR kinetic curve” value [4] was “dissociates relatively quickly” and the “Cell viability at 25 μM” value [5] was “significantly reduced at 25 μM (p < 0.05)”. The “Toxicity to PC12 cells at 50 μM” value [5] was “less toxic to PC12 cells at a concentration of 50 μM”, the “Inhibitory effect on formation of Aβ1–42 aggregates at ratio 1:1” value ([6]; incubated with Aβ1–42 at a ratio of 1:1, ThT, listed as YVRHLKYVRHLK) was “significant inhibitory effect on the formation of Aβ1–42 aggregates when incubated with Aβ1–42 at a ratio of 1:1 (p < 0.05)” and the “Inhibitory effect on Aβ aggregation” value [6, 9] was “strong inhibitory ability on Aβ aggregation; also recorded: good inhibitory effect on the protein aggregation of Aβ1–42”. For the same compound, the “Inhibition of Aβ1–42 aggregation” value ([6]; peptide 50 μM, Aβ1–42 25 μM, 37°C, 24 h, ThT, n = 5 mean, Aβ alone = 100% fluorescence) was 100% and the “ThT fluorescence intensity vs Aβ group” value [6, 10] was “significantly lower than that of the Aβ group (p < 0.05)”.
